Experimental findings from patent EP4796561A1, “ANTI-SYNAPTOTAGMIN 2 ANTIBODY” (Jiksak Bioengineering, Inc., priority 2023, dated 2025) are described below.

Where a SMILES comes first, the peptide text is derived from it. [ ]: non-standard residue; d: D form. The star is where a group is joined. Dolaproine = CO[C@@H]([C@@H]1CCCN1)[C@@H](C)C(=O)O; Dil = CC[C@H](C)[C@H](NC)[C@@H](CC(=O)O)OC; X1 = C[C@@H](N*)[C@@H](O)c1ccccc1; NMeV = CN[C@H](C(=O)O)C(C)C

The subject of experiment [1] is Human iPS-derived motor neuron. Put plainly: Pharmacological effect of antibody-MMAE conjugates: axonal amount (Tuj1 staining) in motor neuron neurospheres with LRRTM2 bead-induced presynapse. To be noted: normalized to Cont. IgG-MMAE set to 100%; 1µg/mL, 30 minutes with 100µM 4-aminopyridine, then 24 hours culture; Tuj1 brightness. The format is cell-based. On the procedure: Human iPS-derived motor neuron (40HU-005-2M; ixcells biotechnologies) was thawed using Dead Cell Removal kit (Veritas) according to the protocol of the kit. The cells after thawing were plated in 96-well plates (V-bottom) at a density of 2×10^4 cells/well and cultured in the motor neuron culture medium (Motor Neuron Maintenance Medium; ixcells biotechnologies) for 1 week to prepare neurospheres. The prepared neurospheres were selected based on size and roundness, and those satisfying this criterion were used in the subsequent experiments.
After coating a 96-well EZVIEW (registered trademark) culture plate LB (AGC Technoglass Co., Ltd.) with poly-D-lysine and Geltrex (registered trademark) Matrix (Thermo Fisher Scientific), the selected neurospheres were then plated and cultured for 20 days. As the medium, the above-described motor neuron culture medium was used first, and medium change with the same medium was performed on the second day of culture. Thereafter, medium was changed three times per week using neuronal medium (Neurobasal plus medium (B27 plus supplement (Thermo Fisher Scientific), 20ng/mL BDNF, 20ng/mL GDNF, and penicillin-streptomycin were added)). Each medium change was performed at 50 µL/well.
Microbeads coated with the extracellular domain of LRRTM2 (active beads) were prepared as disclosed in WO2021/006075. […]

Experiment [2] has as its target human Synaptotagmin 2 expressed on HEK293T cells (human) (UniProt Q8N9I0). Nature of the experiment: flow cytometry on HEK293T cells expressing human SYT2 at 0.01 µg/mL antibody; reference is the polyclonal rabbit anti-SYT2 N-terminal antibody (Synaptic Systems 105 223). Background: Flow cytometry measures light scatter and fluorescence of single cells or particles in a stream.
Chain of UniProt Q8N9I0 (Q8N9I0 whole entry): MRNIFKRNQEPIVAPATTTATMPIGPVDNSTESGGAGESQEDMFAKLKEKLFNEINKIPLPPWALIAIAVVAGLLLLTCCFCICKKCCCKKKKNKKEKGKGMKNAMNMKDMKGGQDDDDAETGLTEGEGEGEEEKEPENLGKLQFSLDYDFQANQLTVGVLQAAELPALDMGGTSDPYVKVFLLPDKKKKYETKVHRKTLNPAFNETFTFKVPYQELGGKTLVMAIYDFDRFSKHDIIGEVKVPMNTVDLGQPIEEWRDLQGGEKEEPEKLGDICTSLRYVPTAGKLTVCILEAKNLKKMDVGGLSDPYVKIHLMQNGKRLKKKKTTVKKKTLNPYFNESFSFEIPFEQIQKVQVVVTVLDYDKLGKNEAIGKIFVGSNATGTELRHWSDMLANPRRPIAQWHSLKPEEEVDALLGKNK

Turning to `CC[C@H](C)[C@@H]([C@@H](CC(=O)N1CCC[C@H]1[C@H](OC)[C@@H](C)C(=O)N[C@H](C)[C@@H](O)c1ccccc1)OC)N(C)C(=O)[C@@H](NC(=O)[C@@H](NC)C(C)C)C(C)C` [MMAE, monomethyl auristatin E] (H-[NMeV]V[Dil][Dolaproine]-X1), the “relative amount of axon” value in experiment [1] is “no significant differences”.

B1: monoclonal antibody according to the present invention (anti-Synaptotagmin 2 intravesicular domain (N-terminal) monoclonal antibody) (antibody, V domains shown)
VH: EVQLQQSGAELVRPGASVKLSCTASGFNIKDDYVHWVKQRPEQGLEWIGWIDPENGDTEYASKFQGKATITADASSNAAYLQLSSLTSEDTAAYYCTTDYYNNPFAYWGQGTLVTVSA
VL: QIVLTQSPAIMSASPGEKVTITCSASSSVSYMHWFQQKPGTSPKLWIYSTSKLASGVPVRFSGSGSGTSYSLTISRMEAEDAATYYCQQRSSYPFTFGSGTKLEIK
Turning to B1, the fluorescence intensity relative to the control polyclonal antibody in experiment [2] turned out to be 2 fold.
